In ChEMBL document CHEMBL6078718, “F-CPI: A Multimodal Deep Learning Approach for Predicting Compound Bioactivity Changes Induced by Fluorine Substitution” (J Med Chem, 2025):

Molecular target: Replicase polyprotein 1ab (Severe acute respiratory syndrome coronavirus 2, UniProt P0DTD1)
Test: Inhibition of 6xHis-tagged SARS-CoV-2 3CLpro using DKE as substrate preincubated for 60 mins followed by substrate addition measured after 20 mins by fluorescence based assay

## CC(C)C[C@@H](C(=O)N1C[C@]2(C[C@H]1C#N)C(=O)Nc1ccccc12)N(C)C(=O)[C@H](C)NC(=O)C(C)C
  IC50: 0.0298 µM

## CN(C)CCOc1c(Cl)cc([C@H](NC(=O)CF)C(=O)N2C[C@H]3[C@@H]([C@H]2C(=O)N[C@H](C#N)C[C@@H]2CCNC2=O)C3(C)C)cc1Cl
  IC50: 0.23 µM

## CC(C)C[C@@H](C(=O)N1C[C@]2(C[C@H]1C#N)C(=O)Nc1ccccc12)N(C)C(=O)[C@H](C)NC(=O)C(C)(C)F
  IC50: 0.0243 µM

## C[C@H](NC(=O)C(F)(F)F)C(=O)N(C)[C@@H](CC1CC1)C(=O)N1C[C@]2(C[C@H]1C#N)C(=O)Nc1ccccc12
  IC50: 0.0255 µM

## C[C@H](NC(=O)C(F)F)C(=O)N(C)[C@@H](CC1CC1)C(=O)N1C[C@]2(C[C@H]1C#N)C(=O)Nc1ccccc12
  IC50: 0.0212 µM

## CC(=O)N[C@H](C(=O)N1C[C@H]2[C@@H]([C@H]1C(=O)N[C@H](C#N)C[C@@H]1CCNC1=O)C2(C)C)c1cc(Cl)c(OCCN(C)C)c(Cl)c1
  IC50: 28.2 µM
